Key:
[1] = target: T1, κ-opioid receptor (Homo sapiens (Human), UniProt P41145); assay: κ-opioid receptor radioligand dose-displacement binding assay ([3H]-U69,593); conditions: binding affinity, [3H]-U69,593 displacement
Experimental: κ-Opioid Receptor Binding Assay Procedures: Membranes from HEK-293 cells, CHO or U-2 OS cells expressing the recombinant human kappa opioid receptor (κ) were prepared by lysing cells in ice cold hypotonic buffer (2.5 mM MgCl2, 50 mM HEPES, pH 7.4) (10 mL/10 cm dish) followed by homogenization with a tissue grinder/Teflon pestle. Membranes were collected by centrifugation at 30,000×g for 15 min at 4° C. and pellets were resuspended in hypotonic buffer to a final concentration of 1-3 mg/mL. Protein concentrations were determined using the BioRad protein assay reagent with bovine serum albumen as standard, Aliquots of κ receptor membranes were stored at […].
Radioligand dose displacement assays used 0.4 nM [^3H]-U69,593 (GE Healthcare, Piscataway, N.J.; 40 Ci/mmole) with 15 μg membrane protein (recombinant κ opioid receptor expressed in HEK 293 cells; in-house prep) in a final volume of 200 μl binding buffer (5% DMSO, 50 mM Trizma base, pH 7.4). Non-specific binding was determined in the presence of 10 μM unlabeled naloxone or U69,593. All reactions were performed in 96-well polypropylene plates for 1 hour at a temperature of about 25° C. Binding reactions were terminated by rapid filtration onto 96-well Unifilter GF/C filter plates (Perkin Elmer, Shelton, Conn.) presoaked in 0.5% polyethylenimine (Sigma). Harvesting was performed using a 96-well tissue harvester (Perkin Elmer, Shelton, Conn.) followed by five filtration washes with 200 μl ice-cold binding buffer. Filter plates were subsequently dried at 50° C. for 1-2 hours. Fifty μl/well scintillation cocktail (Perkin Elmer, Shelton, Conn.) was added and plates were counted in a Packard Top-Count for 1 min/well.

[2] = target: T2, μ-opioid receptor (Homo sapiens (Human), UniProt P35372); assay: μ-opioid receptor [35S]GTPγS functional assay, U-2 OS cells; type: biochemical; conditions: for Emax: relative to DAMGO, U-2 OS cells
Experimental: (§1) μ-Opioid Receptor Functional Assay Procedures: [^35S]GTPγS functional assays were conducted using freshly thawed μ-receptor membranes prepared in-house from a cell line expressing recombinant μ opioid receptor in a HEK-293, CHO or U-2 OS cell background, or purchased from a commercial source (Perkin Elmer, Shelton, Conn.; or DiscovRx, Fremont, Calif.). Assay reactions were prepared by sequentially adding the following reagents to binding buffer (100 mM NaCl, 10 mM MgCl2, 20 mM HEPES, pH 7.4) on ice (final concentrations indicated): membrane protein (0.026 mg/mL), saponin ([…]), GDP ([…]) and [^35S]GTPγS (0.20 nM; Perkin Elmer, Shelton, Conn.). The prepared membrane solution (190 μl/well) was transferred to 96-shallow well polypropylene plates containing 10 μl of 20× concentrated stock solutions of the agonist [D-Ala^2, N-methyl-Phe^4 Gly-ol^5]-enkephalin (DAMGO) prepared in dimethyl sulfoxide (DMSO). Plates were incubated for 30 min at about 25° C. with shaking. Reactions were terminated by rapid filtration onto 96-well Unifilter GF/B filter plates (Perkin Elmer, Shelton, Conn.) using a 96-well tissue harvester (Perkin Elmer, Shelton, Conn.) followed by three filtration washes with 200 μl of ice-cold wash buffer (10 mM NaH2PO4, 10 mM Na2HPO4, pH 7.4). Filter plates were subsequently dried at 50° C. for 2-3 hours. BetaScint scintillation cocktail (Perkin Elmer, Shelton, Conn.) was added (50 μl/well) and plates were counted using a Packard Top-Count for 1 min/well. Data were analyzed using the sigmoidal dose-response curve fitting functions in GraphPad PRISM v. 3.0, or an in-house function for non-linear, sigmoidal dose-response curve-fitting.
(§2) μ-Opioid Receptor Functional Data: μ GTP EC50 is the concentration of a compound providing 50% of the maximal response for the compound at a μ-opioid receptor.
(§3) μ GTP Emax (%) is the maximal effect elicited by a compound relative to the effect elicited by DAMGO, a standard μ agonist. Generally, the μ GTP Emax (%) value measures the efficacy of a compound to treat or prevent pain or other Conditions.
(§4) The following TABLE 3 provides results on the activity response of certain Compounds of the Invention at the μ- and κ-opioid receptors determined as described above using U-2 OS cells.

[3] = target: T1, κ-opioid receptor; assay: κ-opioid receptor [35S]GTPγS functional assay, U-2 OS cells; type: biochemical; conditions: for Emax: relative to U69,593, U-2 OS cells
Experimental: (§5) κ-Opioid Receptor Functional Assay Procedures: Functional [^35S]GTPγS binding assays were conducted as follows. κ opioid receptor membrane solution was prepared by sequentially adding final concentrations of 0.026 μg/μl κ membrane protein (in-house), 10 μg/mL saponin, 3 μM GDP and 0.20 nM [^35S]GTPγS to binding buffer (100 mM NaCl, 10 mM MgCl2, 20 mM HEPES, pH 7.4) on ice. The prepared membrane solution (190 μl/well) was transferred to 96-shallow well polypropylene plates containing 10 μl of 20× concentrated stock solutions of agonist prepared in DMSO. Plates were incubated for 30 min at a temperature of about 25° C. with shaking. Reactions were terminated by rapid filtration onto 96-well Unifilter GF/B filter plates (Perkin Elmer, Shelton, Conn.) using a 96-well tissue harvester (Packard) and followed by three filtration washes with 200 μl ice-cold binding buffer (10 mM NaH2PO4, 10 mM Na2HPO4, pH 7.4). Filter plates were subsequently dried at 50° C. for 2-3 hours. Fifty μl/well scintillation cocktail (Perkin Elmer, Shelton, Conn.) was added and plates were counted in a Packard Top-Count for 1 min/well.
(§6) κ-Opioid Receptor Functional Data: κ GTP EC50 is the concentration of a compound providing 50% of the maximal response for the compound at a κ receptor.
(§7) κ GTP Emax (%) is the maximal effect elicited by a compound relative to the effect elicited by U69,593.
as §4

[4] = target: T2, μ-opioid receptor; assay: μ-opioid receptor [35S]GTPγS functional assay, HEK-293 or CHO cells; type: biochemical
Experimental: as §1, §2, §3
(§8) In TABLE 2, activity response of certain Compounds of the Invention to the μ-, δ- and κ-opioid receptors was determined as described above for functional assays using HEK-293 or CHO cells.

[5] = target: T1, κ-opioid receptor; assay: κ-opioid receptor [35S]GTPγS functional assay, HEK-293 or CHO cells; type: biochemical
Experimental: as §5, §6, §7, §8

With COc1ccc2c(c1)[C@]13CCN(CC4CC4)[C@H](C2)[C@]1(O)Cc1cc(C(=O)NCC(N)=O)c(=O)[nH]c1C3 [Compound 13, (6R,6aS,12aR)—N-(2-amino-2-oxoethyl)-15-(cyclopropylmethyl)-6a-hydroxy-2-methoxy-10-oxo-6,6a,7,10,11,12-hexahydro-5H-6,12a-(epiminoethano)naphtho[2,1-g]quinoline-9-carboxamide] the Ki [1] was 467 ± 173 nM.

CN1CC[C@]23Cc4[nH]c(=O)c(C(=O)N5CCCC5)cc4C[C@@]2(O)[C@H]1Cc1ccc(O)cc13 [Compound 48, (6R,6aS,12aR)-2,6a-dihydroxy-15-methyl-9-(pyrrolidine-1-carbonyl)-6a,7,11,12-tetrahydro-5H-6,12a-(epiminoethano)naphtho[2,1-g]quinolin-10(6H)-one] showed an EC50 [2] of 0.0974 ± 0.00435 µM, an Emax [2] of 82.7 ± 0.88% and an EC50 [3] of 0.226 ± 0.00441 µM. The Emax [3] was 90.3 ± 5.46%.

In the case of CN1CC[C@]23Cc4[nH]c(=O)c(C(=O)N5CCOCC5)cc4C[C@@]2(O)[C@H]1Cc1ccc(O)cc13 [Compound 47, (6R,6aS,12aR)-2,6a-dihydroxy-15-methyl-9-(morpholine-4-carbonyl)-6a,7,11,12-tetrahydro-5H-6,12a-(epiminoethano)naphtho[2,1-g]quinolin-10(6H)-one], the EC50 [2] is reported as 0.156 ± 0.0127 µM, the Emax [2] is reported as 82 ± 1.73% and the EC50 [3] is reported as 0.511 ± 0.139 µM. For the same compound, the Emax [3] was 50 ± 2.74%.

Work on C[C@H](NC(=O)c1cc2c([nH]c1=O)C[C@]13CCN(C)[C@H](Cc4ccc(O)cc41)[C@]3(O)C2)C(N)=O [Compound 50, (6R,6aS,12R)—N—((S)-1-amino-1-oxopropan-2-yl)-26a-dihydroxy-15-methyl-10-oxo-6,6a,7,10,11,12-hexahydro-5H-6,12a-(epiminoethano)naphtho[2.1-g]quinoline-9-carboxamide] yielded an EC50 [2] of 0.204 ± 0.0113 µM, an Emax [2] of 95 ± 1.15% and an EC50 [3] of 1.07 ± 0.157 µM. For the same compound, the Emax [3] was 54 ± 2.74%.

For CN1CC[C@]23Cc4[nH]c(=O)c(C(=O)N5CCC[C@H]5C(N)=O)cc4C[C@@]2(O)[C@H]1Cc1ccc(O)cc13 [Compound 53, (S)-1-((6R,6aS,12R)-2,6a-dihydroxy-15-methyl-10-oxo-6,6a,7,10,11,12-hexahydro-5H-6,12a-(epiminoethano)naphtho[2.1-g]quinoline-9-carbonyl)pyrrolidine-2-carboxamide], the EC50 [2] was 0.123 ± 0.00615 µM, the Emax [2] was 84 ± 2.08% and the EC50 [3] was 0.602 ± 0.173 µM. It also gave an Emax [3] of 68.3 ± 3.38%.

In the case of CN1CC[C@]23Cc4[nH]c(=O)c(C(=O)N[C@@H](Cc5ccccc5)C(N)=O)cc4C[C@@]2(O)[C@H]1Cc1ccc(O)cc13 [Compound 51, (6R,6aS,12R)—N—((S)-1-amino-1-oxo-3-phenylpropan-2-yl)-2,6a-dihydroxy-15-methyl-10-oxo-6,6a,7,10,11,12-hexahydro-5H-6,12a-(epiminoethano)naphtho[2.1-g]quinoline-9-carboxamide], the EC50 [2] is reported as 0.126 ± 0.0143 µM, the Emax [2] is reported as 97.7 ± 1.45% and the EC50 [3] is reported as 0.488 ± 0.0794 µM. The Emax [3] was 39.3 ± 3.84%.

For CN1CC[C@]23Cc4[nH]c(=O)c(C(=O)NCC5CCCCC5)cc4C[C@@]2(O)[C@H]1Cc1ccc(O)cc13 [Compound 44, (6R,6aS,12aR)—N-(cyclohexylmethyl)-2,6a-dihydroxy-15-methyl-10-oxo-6,6a,7,10,11,12-hexahydro-5H-6,12a-(epiminoethano)naphtho[2,1-g]quinoline-9-carboxamide], the EC50 [2] was 0.439 ± 0.0274 µM, the Emax [2] was 88.3 ± 0.88% and the EC50 [3] was 0.0925 ± 0.0242 µM. For the same compound, the Emax [3] was 67 ± 1%.

NC(=O)c1cc2c([nH]c1=O)C[C@]13CCN(CCc4ccccc4)[C@H](Cc4ccc(O)cc41)[C@]3(O)C2 [Compound 37, (6R,6aS,12aR)-2,6a-dihydroxy-10-oxo-15-phenethyl-6,6a,7,10,11,12-hexahydro-5H-6,12a-(epiminoethano)naphtho[2,1-g]quinoline-9-carboxamide] showed an EC50 [4] of 0.268 ± 0.0531 µM, an Emax ([4]; relative to DAMGO, HEK-293 or CHO cells) of 98 ± 4.62% and an EC50 [5] greater than 20 µM. It also gave an Emax ([5]; relative to U69,593, HEK-293 or CHO cells) of 2.5%, an EC50 [2] of 0.0727 ± 0.00387 µM and an Emax [2] of 71.3 ± 0.33%. It also gave an EC50 [3] of 0.374 ± 0.0935 µM and an Emax [3] of 11.3 ± 1.45%.

CN(C)C(=O)c1cc2c([nH]c1=O)C[C@]13CCN(C)[C@H](Cc4ccc(O)cc41)[C@]3(O)C2 [Compound 46, (6R,6aS,12aR)-2,6a-dihydroxy-N,N,15-trimethyl-10-oxo-6,6a,7,10,11,12-hexahydro-5H-6,12a-(epiminoethano)naphtho[2,1-g]quinoline-9-carboxamide] was tested, and the EC50 [2] was 0.157 ± 0.0164 µM, the Emax [2] was 84.7 ± 2.19% and the EC50 [3] was 0.624 ± 0.0836 µM. For the same compound, the Emax [3] was 73 ± 6.99%.

For CC(C)C[C@H](NC(=O)c1cc2c([nH]c1=O)C[C@]13CCN(CC4CC4)[C@H](Cc4ccc(O)cc41)[C@]3(O)C2)C(N)=O [Compound 18, (6R,6aS,12aR)—N—((S)-1-amino-4-methyl-1-oxopentan-2-yl)-15-(cyclopropylmethyl)-2,6a-dihydroxy-10-oxo-6,6a,7,10,11,12-hexahydro-5H-6,12a-(epiminoethano)naphtho[2,1-g]quinoline-9-carboxamide], the Ki [1] was 1.09 ± 0.05 nM and the EC50 [5] was greater than 20 µM.

With COc1ccc2c(c1)[C@]13CCN[C@H](C2)[C@]1(O)Cc1cc(C(N)=O)c(=O)[nH]c1C3 [Compound 32, (6R,6aS,12aR)-6a-hydroxy-2-methoxy-10-oxo-6,6a,7,10,11,12-hexahydro-5H-6,12a-(epiminoethano)naphtho[2,1-g]quinoline-9-carboxamide] the EC50 [2] was greater than 20 µM, the Emax [2] was 17.5% and the EC50 [3] was greater than 20 µM. It also gave an Emax [3] of 6.7 ± 6.56%.

CN1CC[C@]23Cc4[nH]c(=O)c(C(=O)NCc5ccccc5)cc4C[C@@]2(O)[C@H]1Cc1ccc(O)cc13 [Compound 45, (6R,6aS,12aR)—N-benzyl-2,6a-dihydroxy-15-methyl-10-oxo-6,6a,7,10,11,12-hexahydro-5H-6,12a-(epiminoethano)naphtho[2,1-g]quinoline-9-carboxamide] was tested, and the EC50 [2] was 0.306 ± 0.0252 µM, the Emax [2] was 90 ± 1.53% and the EC50 [3] was 0.128 ± 0.00896 µM. It also gave an Emax [3] of 94.3 ± 5.61%.

Source: patent US8980906B2, “Pyridonemorphinan analogs and biological activity on opioid receptors” (Purdue Pharma L.P., priority 2012, dated 2015)
